From US11931366B2, “Compositions and methods of use thereof for treatment of proteinopathies” (priority 2018, dated 2024)
“Also recorded” adds a separate entry of the source. Where two headings read alike, the source gives them in different places.

Columns and labels:
[1] = test system: transgenic C. elegans expressing human mutant alpha-1-antitrypsin gene fused to GFP; experiment: High-throughput phenotypic drug screen and dose response in the C. elegans model of ATD (mutant AT accumulation); format: in vivo; details: for reduction of mutant AT accumulation: 8-point dose response curves, FIG. 4B, 5, 11; for hit in high-throughput screening campaign: C. elegans model of ATD, FIG. 4A
[2] = test system: mutant AT protein accumulation in liver; format: in vivo, mouse; details: vs control (CTR)
[3] = test system: autophagy pathway (LC3, p62); experiment: Autophagy markers (LC3-II/I, p62) following fluphenazine treatment; format: in vivo; details: for autophagic flux: liver
[4] = following fluphenazine treatment

Row | SMILES | reduction of mutant AT accumulation [1] | hit in high-throughput screening campaign [1] | further results
1 | FC(F)(F)c1ccc(SCCCN2CCN(c3cccc(Cl)c3)CC2)nc1 [AW00794, Piperazine, 1-(3-chlorophenyl)-4-[3-[[5-(trifluoromethyl)-2-pyridinyl]thio]propyl]-] | reduce mutant AT protein accumulation; also recorded: reduces AT accumulation |  | 
2 | OC(CNCc1ccc(Cl)cc1)CSc1ccccc1 (stereo not drawn) [RDR 03172] | reduce mutant AT protein accumulation; also recorded: reducing AT accumulations in a dose-dependent manner |  | 
3 | OCCN1CCN(CCCN2c3ccccc3Sc3ccc(C(F)(F)F)cc32)CC1 [fluphenazine] | dose-dependent reduction of mutant AT; also recorded: reduce mutant AT accumulation in a dose-dependent manner | hit compounds | reduction of mutant AT accumulation ([1]; listed as Fluphenazine): reduce misfolded AT protein accumulation in a dose and time-dependent manner; Sirius red staining (collagen deposition, liver fibrosis) ([2]; mouse liver sections): significantly reduced; accumulation of mutant AT protein (purple dots) in liver sections ([2]; transgenic mouse model of ATD): significantly reduced accumulation of mutant AT protein; percent area of purple dots (quantification of AT accumulations) ([2]; transgenic mouse model of ATD): significantly reduced; accumulation of mutant AT protein (purple dots) in liver sections ([2]; transgenic mouse model of ATD, listed as Fluphenazine): reduces mutant AT accumulation; LC3-II/I ratio [3, 4]: increase; p62 [3, 4]: reduction; autophagic flux [3]: enhancing autophagic flux; autophagic flux ([3]; listed as Fluphenazine): enhances autophagic flux
4 | OCCN1CCN(CCCN2c3ccccc3Sc3ccc(Cl)cc32)CC1 [perphenazine] | reduce mutant AT accumulation in a dose-dependent manner | hit compounds | 
5 | CN1CCN(CCCN2c3ccccc3Sc3ccc(Cl)cc32)CC1 [prochlorperazine] | reduce mutant AT accumulation in a dose-dependent manner | hit compounds | 
6 | CCSc1ccc2c(c1)N(CCCN1CCN(C)CC1)c1ccccc1S2 [thiethylperazine] | reduce mutant AT accumulation in a dose-dependent manner |  | 
7 | CSc1ccc2c(c1)N(CCC1CCCCN1C)c1ccccc1S2 (stereo not drawn) [thioridazine] | reduce mutant AT accumulation in a dose-dependent manner |  | 
8 | CN1CCN(CCCN2c3ccccc3Sc3ccc(C(F)(F)F)cc32)CC1 [trifluoperazine] | reduce mutant AT accumulation in a dose-dependent manner | hit compounds | 
